The subject of the test is CHO cells expressing a trap protein (receptor-Fc fusion protein, VEGF-trap). To be noted: 36.6 mg/L putrescine; VEGF-trap from CHO cells.

From US20190010531A1, “CELL CULTURE PROCESS FOR MAKING A GLYCOPROTEIN” (Regeneron Pharmaceuticals, Inc., priority 2017, published 2019) come the findings set out here.

For `NCCCCN` [putrescine, 1,4-Diaminobutane], the “Al N-Glycan relative amount (% area under the curve)” value is reported as 9.0 % area under the curve.
